According to patent publication US20150126964A1, “DRUG DELIVERY ACROSS THE BLOOD-BRAIN BARRIER USING MAGNETICALLY HEATABLE ENTITIES” (CORPORATION DE L'ECOLE POLYTECHNIQUE DE MONTREAL, priority 2012, published 2015):
Several values for one entry are separate records, joined by “and”; a condition that tells them apart may be missing. Equal values may be shown once.

Test system: blood-brain barrier
Experiment: Histological examination of blood-brain barrier leakage of Evans blue dye after external heating
Format: in vivo, mice
Conditions: one line per animal
Description: Staining of the blood-brain barrier is a traditional method for evaluating blood-brain barrier leakage. Evans Blue dye, an exogenous tracer, is used to assess the integrity of the blood-brain barrier following a hyperthermic disruption. The dye molecules are able to easily diffuse through the fenestrated endothelial cells of all capillaries except those of the brain due to a functional blood-brain barrier. However, once the blood-brain barrier is compromised, Evans blue enters the brain and it fluoresces with excitation peaks at 470 and 540 nm and an emission peak at 680 nm. Histological staining techniques can therefore reflect the extent of blood-brain barrier leakage by studying the intensity of Evans blue dye in the brain.
Phase ii. The purpose of this part of the experiment was to examine the feasibility of hyperthermic disruption of the blood-brain barrier as well as its recovery period from thermal damage using Evans blue staining technique. Here, nine mice, each 6-8 weeks of age, were randomly divided into three identical groups. In contrast to the previous part, no holes were drilled into the exposed surface of the skull of these animals. In order to correlate temperature patterns with stains left from the Evans blue dye, the heating parameters for all groups were kept the same as was described in the first part of this experiment. […]

SMILES: Cc1cc(-c2ccc(/N=N/c3ccc4c(S(=O)(=O)O)cc(S(=O)(=O)O)c(N)c4c3O)c(C)c2)ccc1/N=N/c1ccc2c(S(=O)(=O)O)cc(S(=O)(=O)O)c(N)c2c1O [Evans blue]
- Diameter of BBB leakage of Evans blue (mm) (Group I Hyperthermic Disruption, 30 min heating near Bregma, sacrificed one hour after dye): 0 mm and 4.22 mm and 2.46 mm
- Diameter of BBB leakage of Evans blue (mm) (Group II Recovery from Hyperthermia, dye injected 2 hours after 30 min thermal treatment): 0 mm and 0.62 mm and 1.98 mm
